Laboratory results: patent US20240083846A1, “SMAC MIMETICS FOR TREATMENT OF CANCER, PROCESS FOR PREPARATION AND PHARMACEUTICAL COMPOSITION THEREOF” (COUNCIL OF SCIENTIFIC & INDUSTRIAL RESEARCH, priority 2020, published 2024)
Like-named read-outs stand apart in the source and are kept apart here. Where a SMILES comes first, the peptide text is derived from it. [ ]: non-standard residue; d: D form. The star is where a group is joined. Pro(5R-(5-methylfur-2-yl)) = Cc1ccc([C@H]2CC[C@@H](C(=O)O)N2)o1; NHCHPh2 = c1ccc(C(N*)c2ccccc2)cc1; Chg = N[C@H](C(=O)O)C1CCCCC1; NMeA = CN[C@@H](C)C(=O)O; OBn = c1ccc(CO*)cc1

What was measured:
HT29 cells = assay: SRB cytotoxicity assay, HT29; assay type: cell-based; details: for inhibition at 10 µM: Homo sapiens, read-out: In vitro cytotoxicity at 10 μM dose, HT29 (percent growth inhibition)
Experimental: (§1) In vitro cytotoxic activities of different compounds were assessed by using standard SRB assay in different cells. The absorbance of the treated and untreated cells was measured on a multi-well scanning spectrophotometer (Epoch Microplate Reader, Biotek, USA) at a wavelength of 510 nm. Percent growth inhibition was calculated by using the formula […].

SW 620 cells = assay: SRB cytotoxicity assay, SW 620; assay type: cell-based; details: for inhibition at 10 µM: Homo sapiens, read-out: In vitro cytotoxicity at 10 μM dose, SW 620 (percent growth inhibition)
Experimental: as §1

XIAP BIR2 protein = XIAP BIR2 protein (Homo sapiens, UniProt P98170); assay: Fluorescence polarization competition binding assay, XIAP BIR2
Experimental: (§2) The SMAC mimetics 1-9 were tested for their ability to displace the fluorescent labeled peptide AVPIAQK(FAM)-OH from XIAP BIR2 or XIAP BIR3 protein. The dose dependent binding experiment were then carried out by sequentially increasing the concentration of SMAC mimetic compounds at constant concentration of fluorescent labeled peptide and XIAP BIR2 or XIAP BIR3 protein. IC5- values were determined from the plot draw by prism software using nonlinear least-squares analysis. The Ki values of the SMAC mimetics were calculated which was based upon the measured IC50 values, the Kd value between tracer AVPIAQK(FAM)-OH and XIAP BIR2 or XIAP BIR3 complex, and the concentrations of the protein and tracer in the competition assay by using the web based program which are freely accessed at http://sw16.im.med.umich.edu/software/calc_ki/.In-silico.
(§3) Binding isotherms were plotted between FP reading versus log values of protein concentration in nM. The data was analysed using GraphPad prism and Kd values were determined using Boltzmann-sigmoidal non-linear regression curve fitting.

[1] = SRB cytotoxicity assay, VERO; assay type: cell-based, monkey; details: monkey
Experimental: as §1

XIAP BIR3 protein = XIAP BIR3 protein (Homo sapiens, UniProt P98170); assay: Fluorescence polarization competition binding assay, XIAP BIR3
Experimental: as §2, §3

HCT 116 cells = assay: SRB cytotoxicity assay, HCT 116; assay type: cell-based; details: Homo sapiens, read-out: In vitro cytotoxicity at 10 μM dose, HCT 116 (percent growth inhibition)
Experimental: as §1

SW-620 xenograft = assay: Cisplatin resistant SW-620 xenograft model; assay type: in vivo, nude Crl: CD1-Foxnlnu mice; details: FIG. 7
Text: All the animals were maintained in a pathogen-free facility under a day—night cycle.

[2] = HT-29, 10 μM, 48 hours, SRB assay
[3] = displacement of AVPIAQK(FAM)-OH, fluorescence polarization, read-out: Target Binding BIR2 Ki
[4] = VERO cells, 10 μM, 48 hours, SRB assay, read-out: In vitro cytotoxicity at 10 μM dose, VERO (percent growth inhibition)
[5] = displacement of AVPIAQK(FAM)-OH, fluorescence polarization, read-out: Target Binding BIR3 Ki
[6] = SW-620, 10 μM, 48 hours, SRB assay
[7] = HCT-116, 10 μM, 48 hours, SRB assay

XIAP BIR2 protein, sequence (P98170 124-240 limits assumed): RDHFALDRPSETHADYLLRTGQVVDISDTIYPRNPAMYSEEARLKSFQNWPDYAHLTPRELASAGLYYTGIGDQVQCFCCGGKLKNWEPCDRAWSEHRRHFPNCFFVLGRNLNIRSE
XIAP BIR3 protein, sequence (P98170 241-356 limits assumed): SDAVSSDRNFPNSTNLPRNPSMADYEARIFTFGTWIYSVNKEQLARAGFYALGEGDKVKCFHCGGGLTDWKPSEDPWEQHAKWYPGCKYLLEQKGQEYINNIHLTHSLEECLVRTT

Structure (SMILES) | Ki (XIAP BIR2 protein; [3]) [nM] | Ki (XIAP BIR3 protein; [5]) [nM] | inhibition at 10 µM (HT29 cells; [2]) [%] | inhibition at 48 h, 10 μM [1, 4] [%] | inhibition at 10 µM (SW 620 cells; [6]) [%] | inhibition at 10 µM (HCT 116 cells; [7]) [%] | also measured
CC[C@H](C)[C@H](NC(=O)[C@@H]1CCCN1C(=O)[C@@H](NC(=O)[C@H](C)N)C(C)C)C(=O)O [Compound 1, L-alanyl-L-valyl-L-prolyl-L-isoleucine] |  |  |  |  |  |  | In vitro cytotoxicity at 10 μM dose, HT29 (percent growth inhibition) (HT29 cells; 10 μM, 48 hours, SRB assay): −0.01 ± 3.6%; In vitro cytotoxicity at 10 μM dose, SW 620 (percent growth inhibition) (SW 620 cells; 10 μM, 48 hours, SRB assay): 0.97 ± 2.3%
CC[C@H](C)[C@H](NC(=O)[C@@H]1CC[C@H](c2ccc(C)o2)N1C(=O)[C@@H](NC(=O)[C@H](C)N)C(C)C)C(=O)OCc1ccccc1 [Compound 2, benzyl ((2S,5R)-1-(L-alanyl-L-valyl)-5-(5-methylfuran-2-yl)pyrrolidine-2-carbonyl)-L-isoleucinate] | > 10000 | > 10000 | -1.83 ± 5.5 | 24.2 ± 22.7 | 7.88 ± 8 | -7.06 ± 6.9 | 
CC[C@H](C)[C@H](NC(=O)[C@@H]1CC[C@H](c2ccc(C)o2)N1C(=O)[C@@H](NC(=O)[C@H](C)NC)C1CCCCC1)C(=O)NC(c1ccccc1)c1ccccc1 [Compound 9, (2S,5R)-N-((2S ,3S)-1-(benzhydrylamino)-3-methyl-l-oxopentan-2-yl)-1-((S)-2-cyclohexyl-2-((S)-2-(methylamino)propanamido)acetyl)-5-(5-methylfuran-2-yl)pyrrolidine-2-carboxamide] (H-[NMeA][Chg][Pro(5R-(5-methylfur-2-yl))]I-NHCHPh2) |  |  |  |  |  |  | inhibition at 10 µM (HT29 cells; HT-29, 48 h): 72.7 ± 6.9%; Ki (XIAP BIR2 protein): > 10000 nM; inhibition at 48 h, 10 μM ([1]; 10 μM, 48 hours, SRB assay, read-out: In vitro cytotoxicity at 10 μM dose, VERO (percent growth inhibition)): 59.4 ± 11.7%; Ki (XIAP BIR3 protein): 790 nM; inhibition at 10 µM (SW 620 cells; SW-620, 48 h): 81.8 ± 3.3%; inhibition at 10 µM (HCT 116 cells; HCT-116, 48 h): 66.2 ± 15%
N.N.[Cl][Pt][Cl] [cisplatin, reference compound] |  |  |  |  |  |  | In vivo anti tumor efficacy (SW-620 xenograft): failed to deliver its effect
CC[C@H](C)[C@H](NC(=O)[C@@H]1CC[C@H](c2ccc(C)o2)N1C(=O)[C@@H](NC(=O)[C@H](C)NC)C(C)C)C(=O)OCc1ccccc1 [Compound 4, (2S,3S)-benzyl 3-methyl-2-((2S,5R)-1-((S)-3-methyl-2-((S)-2-(methylamino)propanamido)butanoyl)-5-(5-methylfuran-2-yl)pyrrolidine-2-carboxamido)pentanoate] | 7390 | 4380 | 12 ± 0.6 | 4.54 ± 5.6 | -4.1 | -8.07 ± 6.6 | 

Further lines, with some results ahead:

Ki (XIAP BIR2 protein; [3]) [nM] | Ki (XIAP BIR3 protein; [5]) [nM] | Structure (SMILES) | inhibition at 10 µM (HT29 cells; [2]) [%] | inhibition at 48 h, 10 μM [1, 4] [%] | inhibition at 10 µM (SW 620 cells; [6]) [%] | inhibition at 10 µM (HCT 116 cells; [7]) [%] | also measured
1080 | 230 | Cc1ccc([C@H]2CC[C@@H](C(=O)NC(c3ccccc3)c3ccccc3)N2C(=O)[C@@H](NC(=O)[C@H](C)N)C(C)C)o1 [Compound 3, (2S,5R)-1-(L-alanyl-L-valyl)-N-benzhydryl-5-(5-methylfuran-2-yl)pyrrolidine-2-carboxamide] | -0.46 ± 2.2 | 3.89 ± 3.4 | 1.44 ± 2.1 | -2.6 ± 6.1 | 
1800 | 730 | CN[C@@H](C)C(=O)N[C@H](C(=O)N1[C@@H](c2ccc(C)o2)CC[C@H]1C(=O)NC(c1ccccc1)c1ccccc1)C1CCCCC1 [Compound 8, (2S ,5R)-N-benzhydryl-1-((S)-2-cyclohexyl-2-((S)-2-(methylamino)propanamido)acetyl)-5-(5-methylfuran-2-yl)pyrrolidine-2-carboxamide] | 66 ± 2.4 | 39.4 ± 6.9 | 38.7 ± 12.6 | 48.5 ± 6.7 | 
> 10000 | 1420 | CC[C@H](C)[C@H](NC(=O)[C@@H]1CC[C@H](c2ccc(C)o2)N1C(=O)[C@@H](NC(=O)[C@H](C)NC)C1CCCCC1)C(=O)OCc1ccccc1 [Compound 7, (2S,3S)-benzyl 2-((2S,5R)-1-((S)-2-cyclohexyl-2-((S)-2-(methylamino)propanamido)acetyl)-5-(5-methylfuran-2-yl)pyrrolidine-2-carboxamido)-3-methylpentanoate] (H-[NMeA][Chg][Pro(5R-(5-methylfur-2-yl))]I-OBn) |  |  |  |  | inhibition at 10 µM (HT29 cells; HT-29, 48 h): 71.6 ± 10.2%; inhibition at 48 h, 10 μM [1]: 63.2 ± 5%; inhibition at 10 µM (SW 620 cells; SW-620, 48 h): 52.9 ± 22.4%; inhibition at 10 µM (HCT 116 cells; HCT-116, 48 h): 76.5 ± 2.3%
3250 | 500 | CN[C@@H](C)C(=O)N[C@H](C(=O)N1[C@@H](c2ccc(C)o2)CC[C@H]1C(=O)NC(c1ccccc1)c1ccccc1)C(C)C [Compound 5, (2S,5R)-N-benzhydryl-1-(methyl-L-alanyl-L-valyl)-5-(5-methylfuran-2-yl)pyrrolidine-2-carboxamide] | 40.9 ± 5.3 | 11.4 ± 1.1 | 8.11 ± 11.3 | 5.96 ± 1.2 | 
